Columns and labels:
advanced HCC [1] = details: SHARP test; proportion of good responders to sorafenib; cited from earlier work
advanced HCC [2] = details: phase III study, first line; Kudo et al. [10]; cited from earlier work
HUH7 cells = assay: growth of HUH7 cells; format: cell-based; details: in our hands
HCC cells = details: in vitro and in vivo; Xu et al. [23]; cited from earlier work

Question: For `CNC(=O)c1cc(Oc2ccc(NC(=O)Nc3ccc(Cl)c(C(F)(F)F)c3)cc2)ccn1` [sorafenib], which objective response (advanced HCC [1]) is on record?
Answer: Its objective response is 2%.

Question: For `COc1cc2nccc(Oc3ccc(NC(=O)NC4CC4)c(Cl)c3)c2cc1C(N)=O` [lenvatinib], which “overall survival compared to sorafenib” value (advanced HCC [2]) is on record?
Answer: The value was “non-inferiority”.

Question: Which results are given for `Cc1ncc(C[n+]2csc(CCO)c2C)c(=O)[nH]1` [oxythiamine]?
Answer: effect on the growth of HUH7 cells (HUH7 cells): did not confirm the effect; efficacy in HCC cells (HCC cells): effective

Reference: patent US20240151732A1, “EX VIVO METHOD FOR ANALYSING A TISSUE SAMPLE USING PROTEOMIC PROFILE MATCHING, AND ITS USE FOR THE DIAGNOSIS, PROGNOSIS OF PATHOLOGIES AND FOR PREDICTING RESPONSE TO TREATMENTS” (Université de Bordeaux, priority 2021, published 2024)
